# Laboratory results: ChEMBL document CHEMBL5257081, “Discovery of novel PROTACs based on multi-targeted angiogenesis inhibitors” (Bioorg Med Chem Lett, 2023)
# Calls of active or inactive are those of the source. The rule behind the calls is not given here.
# Tests used:
# [1] = target: T1, von Hippel-Lindau disease tumor suppressor/Serine/threonine-protein kinase B-raf (Homo sapiens) (UniProt P15056+P40337); test: Protac activity at E3 ubiquitin ligase/BRAF in human EA.hy 926 cells assessed as degradation of BRAF protein at 10 to 60 uM incubated for 48 hrs by western blot assay; format: cell-based; conditions: dose 10-60 µM
# T1 sequence (P15056 whole entry, looked up): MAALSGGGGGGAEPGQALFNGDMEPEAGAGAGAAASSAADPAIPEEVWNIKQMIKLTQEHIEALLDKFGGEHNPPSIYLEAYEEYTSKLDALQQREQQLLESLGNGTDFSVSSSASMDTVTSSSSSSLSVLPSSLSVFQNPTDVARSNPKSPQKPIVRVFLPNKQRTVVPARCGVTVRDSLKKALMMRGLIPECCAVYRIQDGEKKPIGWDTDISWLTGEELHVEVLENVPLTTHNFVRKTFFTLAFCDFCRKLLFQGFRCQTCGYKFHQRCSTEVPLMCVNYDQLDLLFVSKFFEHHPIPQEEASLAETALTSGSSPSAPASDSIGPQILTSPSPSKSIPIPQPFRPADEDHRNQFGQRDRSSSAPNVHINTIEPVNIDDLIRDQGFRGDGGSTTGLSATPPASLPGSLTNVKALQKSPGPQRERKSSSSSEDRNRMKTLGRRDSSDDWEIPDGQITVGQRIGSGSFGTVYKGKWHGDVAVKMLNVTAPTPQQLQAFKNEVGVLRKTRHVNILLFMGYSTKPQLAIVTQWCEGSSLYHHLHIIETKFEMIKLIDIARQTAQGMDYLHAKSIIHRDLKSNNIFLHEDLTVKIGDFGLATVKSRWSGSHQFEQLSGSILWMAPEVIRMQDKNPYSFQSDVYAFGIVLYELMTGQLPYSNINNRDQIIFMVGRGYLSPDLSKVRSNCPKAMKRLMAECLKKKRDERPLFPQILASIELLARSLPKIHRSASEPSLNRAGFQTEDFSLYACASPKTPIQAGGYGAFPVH
# T1 sequence (P40337 whole entry, looked up): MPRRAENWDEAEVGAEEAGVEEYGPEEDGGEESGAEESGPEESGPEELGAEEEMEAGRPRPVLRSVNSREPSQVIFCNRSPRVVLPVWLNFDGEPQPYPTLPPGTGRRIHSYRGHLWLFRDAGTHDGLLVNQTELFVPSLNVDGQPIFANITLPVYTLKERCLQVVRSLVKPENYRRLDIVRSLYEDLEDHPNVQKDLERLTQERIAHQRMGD
# EA.hy 926 [2] = test: Induction of apoptosis in human EA.hy 926 cells at 0.1 to 40 uM incubated for 72 hrs by annexin-V/PI staining based flow cytometry analysis; format: functional, cell-based; conditions: dose 0.1-40 µM
# HEK293 = test: Cytotoxicity against human HEK293 cells assessed as inhibition of cell growth; format: toxicity, cell-based
# [3] = target: T1, von Hippel-Lindau disease tumor suppressor/Serine/threonine-protein kinase B-raf (Homo sapiens); test: Protac activity at E3 ubiquitin ligase/BRAF in human EA.hy 926 cells assessed as degradation of BRAF protein at 40 uM incubated for 48 hrs by western blot assay; format: cell-based
# MDA-MB-453 = test: Antiproliferative activity against human MDA-MB-453 cells assessed as inhibition of cell growth; format: functional, cell-based
# [4] = Antiproliferative activity against human EA.hy 926 cells assessed as inhibition of cell growth; format: toxicity, cell-based
# [5] = target: T2, von Hippel-Lindau disease tumor suppressor/Vascular endothelial growth factor receptor 2 (Homo sapiens, UniProt P35968+P40337); test: Protac activity at VHL E3 ubiquitin ligase/VEGFR-2 (unknown origin) assessed as […] by ADP-Glo Kinase assay
# Target sequence in this assay (P35968 whole entry): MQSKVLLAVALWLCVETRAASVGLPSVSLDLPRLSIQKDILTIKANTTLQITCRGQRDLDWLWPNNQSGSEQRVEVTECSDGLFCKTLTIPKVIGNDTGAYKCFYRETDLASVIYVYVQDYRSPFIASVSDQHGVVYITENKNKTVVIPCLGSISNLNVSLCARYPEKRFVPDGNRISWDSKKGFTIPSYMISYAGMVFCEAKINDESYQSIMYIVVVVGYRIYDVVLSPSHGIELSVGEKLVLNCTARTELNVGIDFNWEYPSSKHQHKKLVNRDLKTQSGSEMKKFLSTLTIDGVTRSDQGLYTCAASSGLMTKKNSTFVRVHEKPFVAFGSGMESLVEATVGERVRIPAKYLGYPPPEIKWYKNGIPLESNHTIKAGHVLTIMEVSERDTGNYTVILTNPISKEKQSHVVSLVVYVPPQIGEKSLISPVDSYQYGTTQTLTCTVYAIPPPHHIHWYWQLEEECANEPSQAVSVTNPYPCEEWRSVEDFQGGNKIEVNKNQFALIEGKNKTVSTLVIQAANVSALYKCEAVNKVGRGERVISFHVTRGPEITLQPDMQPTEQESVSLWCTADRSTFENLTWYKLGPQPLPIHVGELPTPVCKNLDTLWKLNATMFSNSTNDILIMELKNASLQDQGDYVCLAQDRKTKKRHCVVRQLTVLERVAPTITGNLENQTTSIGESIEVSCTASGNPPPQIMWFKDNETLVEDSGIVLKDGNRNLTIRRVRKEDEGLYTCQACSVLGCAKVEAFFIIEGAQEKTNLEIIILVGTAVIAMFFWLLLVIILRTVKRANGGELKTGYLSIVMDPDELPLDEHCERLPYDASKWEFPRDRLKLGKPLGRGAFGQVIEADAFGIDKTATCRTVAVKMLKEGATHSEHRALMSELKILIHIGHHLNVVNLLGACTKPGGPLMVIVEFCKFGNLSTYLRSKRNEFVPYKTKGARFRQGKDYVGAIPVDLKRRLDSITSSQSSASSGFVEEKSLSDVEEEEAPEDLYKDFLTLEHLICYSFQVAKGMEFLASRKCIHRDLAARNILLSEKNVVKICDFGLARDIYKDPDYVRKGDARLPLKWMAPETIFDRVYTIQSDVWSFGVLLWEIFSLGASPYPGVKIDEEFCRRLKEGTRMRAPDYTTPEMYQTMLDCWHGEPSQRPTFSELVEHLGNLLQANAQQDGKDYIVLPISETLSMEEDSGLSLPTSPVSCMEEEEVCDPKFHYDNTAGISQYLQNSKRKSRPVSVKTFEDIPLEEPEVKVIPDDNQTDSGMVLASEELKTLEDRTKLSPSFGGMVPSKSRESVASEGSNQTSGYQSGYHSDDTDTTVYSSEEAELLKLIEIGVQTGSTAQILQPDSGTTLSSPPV
# Target sequence in this assay (P40337 whole entry): as the sequence (P40337 whole entry, looked up) above
# A549 = test: Antiproliferative activity against human A549 cells assessed as inhibition of cell growth; format: functional, cell-based
# EA.hy 926 [6] = test: Induction of cell cycle arrest in human EA.hy 926 cells at 0.1 to 40 uM incubated for 48 hrs by propidium-iodide staining based flow cytometry analysis; format: functional; conditions: dose 0.1-40 µM
# [7] = target: T1, von Hippel-Lindau disease tumor suppressor/Serine/threonine-protein kinase B-raf (Homo sapiens); test: Protac activity at E3 ubiquitin ligase/BRAF in human EA.hy 926 cells assessed as degradation of BRAF protein at 40 uM incubated for 4 hrs by western blot assay; format: cell-based
# [8] = target: T1, von Hippel-Lindau disease tumor suppressor/Serine/threonine-protein kinase B-raf (Homo sapiens); test: Protac activity at E3 ubiquitin ligase/BRAF in human EA.hy 926 cells assessed as degradation of BRAF protein at 40 uM incubated for 4 to 48 hrs by western blot assay; format: cell-based; conditions: time 4-48 hrs, TDE = time-dependent effect
# [9] = target: T2, von Hippel-Lindau disease tumor suppressor/Vascular endothelial growth factor receptor 2; test: Protac activity at VHL E3 ubiquitin ligase/VEGFR-2 in human EA.hy 926 cells assessed as degradation of VEGFR-2 protein at 10 to 60 uM incubated for 48 hrs by western blot assay; format: cell-based; conditions: dose 10-60 µM
# Target sequence in this assay (P35968 20-1356 limits assumed): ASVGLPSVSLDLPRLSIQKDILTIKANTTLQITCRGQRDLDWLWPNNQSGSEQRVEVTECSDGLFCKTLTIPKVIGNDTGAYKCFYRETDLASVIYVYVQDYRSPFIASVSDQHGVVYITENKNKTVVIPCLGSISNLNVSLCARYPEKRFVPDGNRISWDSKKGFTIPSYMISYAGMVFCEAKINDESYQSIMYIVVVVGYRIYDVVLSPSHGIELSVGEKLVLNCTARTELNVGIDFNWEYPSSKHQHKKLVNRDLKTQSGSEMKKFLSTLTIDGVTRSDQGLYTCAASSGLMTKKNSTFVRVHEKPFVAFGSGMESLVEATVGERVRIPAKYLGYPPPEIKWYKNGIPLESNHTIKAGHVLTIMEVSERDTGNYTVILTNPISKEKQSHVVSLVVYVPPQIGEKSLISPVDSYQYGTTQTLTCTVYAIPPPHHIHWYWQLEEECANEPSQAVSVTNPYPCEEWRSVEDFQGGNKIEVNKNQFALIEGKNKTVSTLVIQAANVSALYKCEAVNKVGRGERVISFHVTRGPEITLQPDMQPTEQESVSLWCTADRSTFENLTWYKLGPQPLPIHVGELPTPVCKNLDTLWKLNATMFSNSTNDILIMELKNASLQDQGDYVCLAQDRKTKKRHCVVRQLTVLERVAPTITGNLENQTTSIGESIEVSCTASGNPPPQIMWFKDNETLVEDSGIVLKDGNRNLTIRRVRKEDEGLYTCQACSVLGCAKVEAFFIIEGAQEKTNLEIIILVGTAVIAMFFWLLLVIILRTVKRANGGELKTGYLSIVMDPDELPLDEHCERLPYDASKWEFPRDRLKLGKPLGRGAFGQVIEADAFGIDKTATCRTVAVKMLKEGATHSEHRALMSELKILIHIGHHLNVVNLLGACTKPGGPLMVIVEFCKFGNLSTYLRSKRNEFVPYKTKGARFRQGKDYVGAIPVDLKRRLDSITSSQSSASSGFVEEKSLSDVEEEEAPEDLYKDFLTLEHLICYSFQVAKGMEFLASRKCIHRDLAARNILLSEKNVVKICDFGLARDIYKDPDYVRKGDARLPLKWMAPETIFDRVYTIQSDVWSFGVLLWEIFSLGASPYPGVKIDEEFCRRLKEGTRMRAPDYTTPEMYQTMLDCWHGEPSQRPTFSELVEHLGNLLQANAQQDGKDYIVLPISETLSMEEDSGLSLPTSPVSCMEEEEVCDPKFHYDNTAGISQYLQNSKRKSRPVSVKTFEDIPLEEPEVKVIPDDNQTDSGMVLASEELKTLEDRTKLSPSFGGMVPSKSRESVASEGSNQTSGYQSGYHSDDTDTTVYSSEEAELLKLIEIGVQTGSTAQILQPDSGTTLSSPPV
# Target sequence in this assay (P40337 whole entry partner): as the sequence (P40337 whole entry, looked up) above
# EA.hy 926 [10] = test: Induction of apoptosis in human EA.hy 926 cells assessed as late apoptotic cells at 10 uM incubated for 72 hrs by annexin-V/PI staining based flow cytometry analysis (reference value: 3.07%); format: functional
# [11] = target: T1, von Hippel-Lindau disease tumor suppressor/Serine/threonine-protein kinase B-raf (Homo sapiens); test: Protac activity at E3 ubiquitin ligase/BRAF in human EA.hy 926 cells assessed as degradation of BRAF protein at 30 uM preincubated with S5 for 2 hrs followed by compound addition and measured after 48 hrs by Western blot analysis; format: cell-based
# EA.hy 926 [12] = test: Induction of apoptosis in human EA.hy 926 cells assessed as necrotic cells at 40 uM incubated for 72 hrs by annexin-V/PI staining based flow cytometry analysis (reference value: 2.34%); format: functional
# EA.hy 926 [13] = test: Induction of apoptosis in human EA.hy 926 cells assessed as viable cells at 1 uM incubated for 72 hrs by annexin-V/PI staining based flow cytometry analysis (reference value: 93.8%); format: functional; conditions: read-out: Activity
# EA.hy 926 [14] = test: Induction of apoptosis in human EA.hy 926 cells assessed as necrotic cells at 1 uM incubated for 72 hrs by annexin-V/PI staining based flow cytometry analysis (reference value: 2.34%); format: functional
# EA.hy 926 [15] = test: Induction of apoptosis in human EA.hy 926 cells assessed as early apoptotic cells at 40 uM incubated for 72 hrs by annexin-V/PI staining based flow cytometry analysis (reference value: 0.71%); format: functional
# EA.hy 926 [16] = test: Induction of apoptosis in human EA.hy 926 cells assessed as necrotic cells at 20 uM incubated for 72 hrs by annexin-V/PI staining based flow cytometry analysis (reference value: 2.34%); format: functional
# EA.hy 926 [17] = test: Induction of apoptosis in human EA.hy 926 cells assessed as viable cells at 40 uM incubated for 72 hrs by annexin-V/PI staining based flow cytometry analysis (reference value: 93.8%); format: functional; conditions: read-out: Activity
# [18] = target: T1, von Hippel-Lindau disease tumor suppressor/Serine/threonine-protein kinase B-raf (Homo sapiens); test: Protac activity at E3 ubiquitin ligase/BRAF in human EA.hy 926 cells assessed as degradation of BRAF protein at 30 uM preincubated with VH032 for 2 hrs followed by compound addition and measured after 48 hrs by Western blot analysis; format: cell-based
# EA.hy 926 [19] = test: Induction of apoptosis in human EA.hy 926 cells assessed as early apoptotic cells at 1 uM incubated for 72 hrs by annexin-V/PI staining based flow cytometry analysis (reference value: 0.71%); format: functional
# EA.hy 926 [20] = test: Induction of apoptosis in human EA.hy 926 cells assessed as early apoptotic cells at 20 uM incubated for 72 hrs by annexin-V/PI staining based flow cytometry analysis (reference value: 0.71%); format: functional
# EA.hy 926 [21] = test: Induction of apoptosis in human EA.hy 926 cells assessed as late apoptotic cells at 1 uM incubated for 72 hrs by annexin-V/PI staining based flow cytometry analysis (reference value: 3.07%); format: functional
# EA.hy 926 [22] = test: Induction of cell cycle arrest in human EA.hy 926 cells assessed as accumulation of cells at S pahse at 0.1 to 40 uM incubated for 48 hrs by propidium-iodide staining based flow cytometry analysis; format: functional; conditions: dose 0.1-40 µM
# [23] = target: T2, von Hippel-Lindau disease tumor suppressor/Vascular endothelial growth factor receptor 2; test: Protac activity at VHL E3 ubiquitin ligase/VEGFR-2 in human EA.hy 926 cells assessed as degradation of VEGFR-2 protein preincubated with carfilzomib; format: cell-based
# Target sequence in this assay (P35968 20-1356 limits assumed): as the sequence (P35968 20-1356 limits assumed) above
# Target sequence in this assay (P40337 whole entry partner): as the sequence (P40337 whole entry, looked up) above
# EA.hy 926 [24] = test: Induction of apoptosis in human EA.hy 926 cells assessed as late apoptotic cells at 0.1 uM incubated for 72 hrs by annexin-V/PI staining based flow cytometry analysis (reference value: 3.07%); format: functional
# EA.hy 926 [25] = test: Induction of apoptosis in human EA.hy 926 cells assessed as viable cells at 0.1 uM incubated for 72 hrs by annexin-V/PI staining based flow cytometry analysis (reference value: 93.8%); format: functional; conditions: read-out: Activity
# EA.hy 926 [26] = test: Induction of apoptosis in human EA.hy 926 cells assessed as viable cells at 20 uM incubated for 72 hrs by annexin-V/PI staining based flow cytometry analysis (reference value: 93.8%); format: functional; conditions: read-out: Activity
# EA.hy 926 [27] = test: Induction of apoptosis in human EA.hy 926 cells assessed as necrotic cells at 0.1 uM incubated for 72 hrs by annexin-V/PI staining based flow cytometry analysis (reference value: 2.34%); format: functional
# EA.hy 926 [28] = test: Induction of apoptosis in human EA.hy 926 cells assessed as early apoptotic cells at 10 uM incubated for 72 hrs by annexin-V/PI staining based flow cytometry analysis (reference value: 0.71%); format: functional
# EA.hy 926 [29] = test: Induction of apoptosis in human EA.hy 926 cells assessed as early apoptotic cells at 0.1 uM incubated for 72 hrs by annexin-V/PI staining based flow cytometry analysis (reference value: 0.71%); format: functional
# EA.hy 926 [30] = test: Induction of apoptosis in human EA.hy 926 cells assessed as necrotic cells at 10 uM incubated for 72 hrs by annexin-V/PI staining based flow cytometry analysis (reference value: 2.34%); format: functional
# EA.hy 926 [31] = test: Induction of apoptosis in human EA.hy 926 cells assessed as late apoptotic cells at 40 uM incubated for 72 hrs by annexin-V/PI staining based flow cytometry analysis (reference value: 3.07%); format: functional
# EA.hy 926 [32] = test: Induction of apoptosis in human EA.hy 926 cells assessed as viable cells at 10 uM incubated for 72 hrs by annexin-V/PI staining based flow cytometry analysis (reference value: 93.8%); format: functional; conditions: read-out: Activity
# EA.hy 926 [33] = test: Induction of apoptosis in human EA.hy 926 cells assessed as late apoptotic cells at 20 uM incubated for 72 hrs by annexin-V/PI staining based flow cytometry analysis (reference value: 3.07%); format: functional
# [34] = target: T1, von Hippel-Lindau disease tumor suppressor/Serine/threonine-protein kinase B-raf (Homo sapiens); test: Protac activity at E3 ubiquitin ligase/BRAF in human U87 cells assessed as degradation of BRAF protein; format: cell-based
# [35] = target: T1, von Hippel-Lindau disease tumor suppressor/Serine/threonine-protein kinase B-raf (Homo sapiens); test: Protac activity at E3 ubiquitin ligase/BRAF in human MDA-MB-231 cells assessed as degradation of BRAF protein; format: cell-based
# [36] = target: T1, von Hippel-Lindau disease tumor suppressor/Serine/threonine-protein kinase B-raf (Homo sapiens); test: Protac activity at E3 ubiquitin ligase/BRAF in human HepG2 cells assessed as degradation of BRAF protein; format: cell-based
# [37] = target: T2, von Hippel-Lindau disease tumor suppressor/Vascular endothelial growth factor receptor 2; test: Protac activity at VHL E3 ubiquitin ligase/VEGFR-2 in human EA.hy 926 cells assessed as degradation of VEGFR-2 protein at […]; format: cell-based
# Target sequence in this assay (P35968 20-1356 limits assumed): as the sequence (P35968 20-1356 limits assumed) above
# Target sequence in this assay (P40337 whole entry partner): as the sequence (P40337 whole entry, looked up) above
# EA.hy 926 [38] = test: Cytotoxicity against human EA.hy 926 cells; format: toxicity, cell-based
smiles,measurement,setting,value
Cc1ncsc1-c1ccc(CNC(=O)[C@@H]2C[C@@H](O)CN2C(=O)[C@@H](NC(=O)CCCCCCCCCCC(=O)n2nc(N)c3c(-c4cccc(NC(=O)Nc5cccc(Cl)c5)c4)cccc32)C(C)(C)C)cc1,Activity,[1],Active
same,Activity,EA.hy 926 [2],Active
same,Activity,HEK293,Non-Toxic
same,Activity,[3],Active
same,IC50,MDA-MB-453,> 100 µM
same,IC50,[4],21 µM
same,IC50,[5],0.00707 µM
same,IC50,A549,> 100 µM
same,Activity,EA.hy 926 [6],inactive
same,Activity,[7],Active
same,Activity,[8],Tde
same,Activity,[9],Active
Cc1ncsc1-c1ccc(CNC(=O)[C@@H]2C[C@@H](O)CN2C(=O)[C@@H](NC(=O)CCCCCC(=O)n2nc(N)c3c(-c4cccc(NC(=O)Nc5cccc(Cl)c5)c4)cccc32)C(C)(C)C)cc1,Activity,EA.hy 926 [10],2.62%
same,Activity,[1],Active
same,Activity,[11],inactive
same,Activity,EA.hy 926 [12],3.7%
same,viability at 1 µM,EA.hy 926 [13],93.1%
same,Activity,EA.hy 926 [2],Active
same,Activity,HEK293,Non-Toxic
same,Activity,EA.hy 926 [14],2.75%
same,IC50,MDA-MB-453,> 100 µM
same,IC50,[4],20 µM
same,IC50,[5],0.0422 µM
same,Activity,EA.hy 926 [15],1.44%
same,Activity,EA.hy 926 [16],7.08%
same,viability at 40 µM,EA.hy 926 [17],92.2%
same,Activity,[18],inactive
same,Activity,EA.hy 926 [19],0.96%
same,IC50,A549,> 100 µM
same,Activity,EA.hy 926 [20],0.86%
same,Activity,EA.hy 926 [21],3.2%
same,Activity,EA.hy 926 [22],Active
same,Activity,[23],inactive
same,Activity,EA.hy 926 [24],1.77%
same,viability at 0.1 µM,EA.hy 926 [25],91.3%
same,viability at 20 µM,EA.hy 926 [26],88.1%
same,Activity,EA.hy 926 [27],6.32%
same,Activity,EA.hy 926 [28],0.77%
same,Activity,EA.hy 926 [29],0.57%
same,Activity,EA.hy 926 [30],5.23%
same,Activity,EA.hy 926 [31],2.62%
same,viability at 10 µM,EA.hy 926 [32],91.4%
same,Activity,EA.hy 926 [33],3.93%
same,Activity,[9],Active
Cc1ncsc1-c1ccc(CNC(=O)[C@@H]2C[C@@H](O)CN2C(=O)[C@@H](NC(=O)CCCCCCCCCCCCCCC(=O)n2nc(N)c3c(-c4cccc(NC(=O)Nc5cccc(Cl)c5)c4)cccc32)C(C)(C)C)cc1,Activity,[1],Dose-Dependent Effect
same,Activity,HEK293,Non-Toxic
same,IC50,MDA-MB-453,> 100 µM
same,IC50,[4],28.5 µM
same,IC50,[5],0.00212 µM
same,Activity,[34],Active
same,IC50,A549,> 100 µM
same,Activity,[35],inactive
same,Activity,[36],Active
CC(C)C[C@H](NC(=O)[C@H](CCc1ccccc1)NC(=O)CN1CCOCC1)C(=O)N[C@@H](Cc1ccccc1)C(=O)N[C@@H](CC(C)C)C(=O)[C@@]1(C)CO1 [CARFILZOMIB],Activity,[37],Active
same,Activity,EA.hy 926 [38],Toxic
Nc1n[nH]c2cccc(-c3cccc(NC(=O)Nc4cccc(Cl)c4)c3)c12,Activity,HEK293,Non-Toxic
same,IC50,MDA-MB-453,> 100 µM
same,IC50,[4],7.33 µM
same,IC50,A549,15.8 µM
